The target in one series is PI3Kα (Homo sapiens (Human), UniProt P42336). Description: PI3Kα enzymatic inhibitory activity IC50 assay (Caliper Reader). The class given is biochemical. As for the experimental part: (§1) Biological Effect Example 1 PI3Kα and PI3Kδ Enzymatic Inhibitory Activity IC50 Assay • 1. Buffer preparation: 50 mM HEPES, pH 7.5, 3 mM MgCl2, 1 mM EGTA, 100 mM NaCl, 0.03% CHAPS. • 2. Compound was formulated in 100% DMSO in a concentration gradient, deposited to a 384-well plate to make final DMSO concentration of 1%. • 3. PI3Kα and PI3Kδ enzymes were diluted to be the optimum concentration with the following buffer: 50 mM HEPES, pH 7.5, 3 mM MgCl2, 1 mM EGTA, 100 mM NaCl, 0.03% CHAPS, 2 mM DTT. Transferred to a 384-well plate and incubated with the compound for a certain time. • 4. […] The reaction was performed in a 384-well plate for 1 h at room temperature for PI3Kα and 2 hrs at room temperature for PI3Kδ. • 5. Read the conversion rate using Caliper Reader, and calculate the inhibition rate as the average of two tests.
PI3Kα, sequence (P42336 whole entry): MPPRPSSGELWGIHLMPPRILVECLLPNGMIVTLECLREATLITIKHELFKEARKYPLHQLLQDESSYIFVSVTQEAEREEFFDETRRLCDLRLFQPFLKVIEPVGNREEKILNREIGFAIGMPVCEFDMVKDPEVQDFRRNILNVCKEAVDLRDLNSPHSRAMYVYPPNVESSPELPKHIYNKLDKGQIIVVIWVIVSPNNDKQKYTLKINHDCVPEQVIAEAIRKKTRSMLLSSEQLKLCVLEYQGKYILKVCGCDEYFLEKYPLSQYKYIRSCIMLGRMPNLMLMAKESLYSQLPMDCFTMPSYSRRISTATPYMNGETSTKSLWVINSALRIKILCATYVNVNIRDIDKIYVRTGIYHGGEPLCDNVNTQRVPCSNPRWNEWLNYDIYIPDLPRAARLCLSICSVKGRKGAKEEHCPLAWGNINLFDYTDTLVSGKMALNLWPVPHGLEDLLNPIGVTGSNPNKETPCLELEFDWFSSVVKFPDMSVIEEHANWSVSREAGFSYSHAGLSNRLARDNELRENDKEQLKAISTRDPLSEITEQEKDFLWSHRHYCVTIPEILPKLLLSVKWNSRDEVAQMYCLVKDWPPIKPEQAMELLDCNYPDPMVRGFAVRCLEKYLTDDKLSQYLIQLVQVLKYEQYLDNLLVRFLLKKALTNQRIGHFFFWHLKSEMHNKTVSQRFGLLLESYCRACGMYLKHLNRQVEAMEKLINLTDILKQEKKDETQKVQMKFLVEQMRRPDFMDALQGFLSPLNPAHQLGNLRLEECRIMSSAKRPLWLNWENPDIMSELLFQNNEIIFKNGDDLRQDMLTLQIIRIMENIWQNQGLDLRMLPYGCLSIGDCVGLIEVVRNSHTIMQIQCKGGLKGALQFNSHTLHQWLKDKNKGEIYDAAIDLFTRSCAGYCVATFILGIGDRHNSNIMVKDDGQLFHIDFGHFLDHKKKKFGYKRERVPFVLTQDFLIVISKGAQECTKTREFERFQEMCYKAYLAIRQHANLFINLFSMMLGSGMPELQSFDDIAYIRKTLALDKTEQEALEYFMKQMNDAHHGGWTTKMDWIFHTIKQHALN
PI3Kα, sequence (P27986 whole entry partner): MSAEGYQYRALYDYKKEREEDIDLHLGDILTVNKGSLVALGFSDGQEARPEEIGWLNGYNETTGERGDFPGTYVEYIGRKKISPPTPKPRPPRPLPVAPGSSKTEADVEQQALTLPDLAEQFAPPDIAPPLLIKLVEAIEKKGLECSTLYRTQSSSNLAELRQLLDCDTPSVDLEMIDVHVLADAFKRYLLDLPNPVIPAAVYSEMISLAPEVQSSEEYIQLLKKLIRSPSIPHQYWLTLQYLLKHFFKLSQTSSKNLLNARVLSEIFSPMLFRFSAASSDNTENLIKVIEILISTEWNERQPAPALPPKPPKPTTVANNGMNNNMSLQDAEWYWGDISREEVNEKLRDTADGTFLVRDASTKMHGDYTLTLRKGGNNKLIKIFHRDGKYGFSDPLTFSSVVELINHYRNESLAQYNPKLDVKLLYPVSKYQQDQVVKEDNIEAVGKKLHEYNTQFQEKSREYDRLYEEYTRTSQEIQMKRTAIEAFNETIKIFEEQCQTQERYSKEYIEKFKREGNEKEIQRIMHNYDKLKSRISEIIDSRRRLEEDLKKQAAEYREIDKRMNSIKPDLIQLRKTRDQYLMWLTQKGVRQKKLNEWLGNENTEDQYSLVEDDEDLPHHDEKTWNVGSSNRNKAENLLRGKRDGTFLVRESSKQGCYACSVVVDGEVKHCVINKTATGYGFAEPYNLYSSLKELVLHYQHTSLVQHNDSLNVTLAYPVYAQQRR

Another series deals with PI3Kδ (Homo sapiens (Human), UniProt O00329). Nature of the series: PI3Kδ enzymatic inhibitory activity IC50 assay (Caliper Reader). The class given is biochemical. As for the experimental part: as §1
PI3Kδ, sequence (O00329 whole entry): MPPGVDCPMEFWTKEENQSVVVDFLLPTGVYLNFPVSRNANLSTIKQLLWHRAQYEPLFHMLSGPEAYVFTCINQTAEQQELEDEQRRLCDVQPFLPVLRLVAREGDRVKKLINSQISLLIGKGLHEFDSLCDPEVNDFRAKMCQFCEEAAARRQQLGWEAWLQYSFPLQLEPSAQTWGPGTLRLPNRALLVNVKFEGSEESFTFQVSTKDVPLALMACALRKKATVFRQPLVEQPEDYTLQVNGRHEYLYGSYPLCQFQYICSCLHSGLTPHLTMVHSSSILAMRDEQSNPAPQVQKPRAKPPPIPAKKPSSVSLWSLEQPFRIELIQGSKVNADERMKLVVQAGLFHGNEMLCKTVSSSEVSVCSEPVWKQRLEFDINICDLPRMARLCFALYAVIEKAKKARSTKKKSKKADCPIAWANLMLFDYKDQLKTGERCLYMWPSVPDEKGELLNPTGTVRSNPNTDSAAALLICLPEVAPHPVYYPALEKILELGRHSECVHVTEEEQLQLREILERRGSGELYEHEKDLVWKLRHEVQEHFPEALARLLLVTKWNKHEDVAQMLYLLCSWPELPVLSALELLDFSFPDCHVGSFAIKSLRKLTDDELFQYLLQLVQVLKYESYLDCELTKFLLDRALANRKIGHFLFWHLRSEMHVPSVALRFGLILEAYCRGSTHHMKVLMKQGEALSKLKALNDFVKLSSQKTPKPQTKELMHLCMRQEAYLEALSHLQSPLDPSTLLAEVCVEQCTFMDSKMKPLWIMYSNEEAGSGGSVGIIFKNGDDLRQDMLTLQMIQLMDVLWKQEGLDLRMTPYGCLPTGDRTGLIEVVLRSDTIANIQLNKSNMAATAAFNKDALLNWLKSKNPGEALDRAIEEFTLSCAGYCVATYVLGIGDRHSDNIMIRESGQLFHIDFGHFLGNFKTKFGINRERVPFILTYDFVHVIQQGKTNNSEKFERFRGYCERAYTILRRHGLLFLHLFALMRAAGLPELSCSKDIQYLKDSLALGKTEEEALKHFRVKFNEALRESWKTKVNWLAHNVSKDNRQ
PI3Kδ, sequence (P27986 whole entry partner): as the sequence (P27986 whole entry partner) above
In another series the test system is A549. Description: Cell proliferation inhibition assay (MTT), A549. The class given is cell-based. The note with it: 72 hrs. As for the experimental part: (§2) Cancer cell lines (A549, PC3, or […]) in the logarithmic growth phase were plated at a density of about 3,000 per well in 96-well plates, 90 μL/well, using double wells for each concentration. Control wells containing corresponding concentration of vehicle and without cells were also prepared. After 24 hrs, positive control compound and example compounds were added to make 10 μL/well and final DMSO concentration of 0.5%. The cells were incubated with compounds for 72 hrs in the presence of 10% Invitrogen fetal bovine serum, 37° C., 5% CO2. 5 mg/mL MTT solution was added to make 10 μL/well, and incubated for 4 hours at 37° C. A ddH2O solution (10% SDS, 5% isobutanol, 10 mmol/L HCl) was added to make 100 μL/well and incubated overnight at 37° C.

In a further series the test system is PC3. Description: Cell proliferation inhibition assay (MTT), PC3. The class given is cell-based. The note with it: 72 hrs. As for the experimental part: as §2
A further series has as its system U87-MG. Nature of the series: Cell proliferation inhibition assay (MTT), U87-MG. The class given is cell-based. The note with it: 72 hrs. Here is the method:
as §2

Series [1] relates to malignant glioma cell U87MG xenograft. Description: Growth inhibition of malignant glioma cell U87MG xenograft in nude mice. The class given is in vivo. The note with it: for TGI: 20 days; for Tumor size D 0: day 0; for Tumor size D 20: day 20. Here is the method:
(§3) Groups of nude mice were implanted subcutaneously in the right hind back with 4×10^6 U87MG cells. Start dosing when mean tumor volume reached approximately 150 (100-200) mm^3. Grouping method: before dosing, animals were weighted, tumor sizes were measured, and randomized according to the tumor size (randomized block design), 8 mice per group. A solvent (0.5% CMC-Na+0.2% Tween-80) was dosed once daily by oral gavage for solvent control group, and pre-determined dose of test compound was dosed once daily by oral gavage for a dosing group, for 20 consecutive days.
(§4) Tumor diameters were measured twice a week with a vernier caliper. Tumor volume was calculated with formula: V=0.5a×b^2, a and b represent longer and shorter diameter of tumor. […] Meanwhile, the weight of nude mice in each group was weighed twice weekly for a preliminary evaluation of compound toxicity.

Series [2] in a line: Body weight of nude mice in the U87MG xenograft study, preliminary evaluation of compound toxicity. The class given is in vivo. The note with it: for Body weight D 0: day 0; for Body weight D 20: day 20. Here is the method: as §3, §4
Setting [3] is: 20 mg/kg once daily oral gavage.
[4] abbreviates: 50 mg/kg once daily oral gavage.
The mark [5] stands for this setting: 150 mg/kg once daily oral gavage.
Setting [6] is: 25 mg/kg once daily oral gavage.

As usually defined, the IC50 is the concentration that gives 50% inhibition. High values mean weaker potency, low ones greater potency. With `Nc1ncc(-c2nc(N3CCOCC3)nc3c(CN4CCN(C(=O)CO)CC4)csc23)cn1` [Compound 28], the IC50 turned out to be 24 nM against PI3Kα; 38 nM at PI3Kδ; 2.6 µM in the series with A549; 1940 nM with PC3; 4.46 µM in the series with U87-MG.

With `Cc1sc2c(-c3cnc(N)nc3)nc(N3CCOCC3)nc2c1CN1CCN(CCO)CC1` [Compound 36], the IC50 against PI3Kα was determined as 157 nM; against PI3Kδ, 56 nM.

Consider `CS(=O)(=O)N1CCN(Cc2csc3c(-c4ccc(N)nc4)nc(N4CCOCC4)nc23)CC1` [Compound 12], for which the figures for the IC50 on PI3Kα and against PI3Kδ were 232 nM and 190 nM, respectively.

For the compound `Cc1sc2c(-c3cccc4[nH]ncc34)nc(N3CCOCC3)nc2c1CN1CCN(S(C)(=O)=O)CC1` [Compound 30], the IC50 against PI3Kα was determined as 262 nM; against PI3Kδ, 60.4 nM.

Take `C[C@H](O)C(=O)N1CCN(Cc2csc3c(-c4cnc(N)nc4)nc(N4CCOCC4)nc23)CC1` [Compound 18]: the IC50 on PI3Kα amounted to 12 nM; at PI3Kδ, 12.6 nM; in the series on A549, 3.64 µM; in the series with PC3 it was 2310 nM; in the series on U87-MG, 8.87 µM.

Consider `CS(=O)(=O)N1CCN(Cc2csc3c(-c4cccc5[nH]ncc45)nc(N4CCOCC4)nc23)CC1` [Compound 6], for which the IC50 against PI3Kα was found to be 57 nM; at PI3Kδ it was 62 nM; in the series with A549, 4.64 µM; with PC3 it was 6110 nM; with U87-MG, 7.41 µM.

On to `Cc1sc2c(-c3cnc(N)nc3)nc(N3CCOCC3)nc2c1CN1CCN(C(=O)[C@@H](C)O)CC1` [Compound 25], for which the IC50 was determined as 56 nM at PI3Kα; 13 nM at PI3Kδ; 6.68 µM in the series on A549; 3060 nM with PC3; 11.3 µM with U87-MG.

`CC(C)(O)C1CCN(Cc2csc3c(-c4cnc(N)nc4)nc(N4CCOCC4)nc23)CC1` [Compound 17]: the IC50 at PI3Kα came out at 245 nM; against PI3Kδ it was 65.4 nM; in the series on A549, 4.82 µM; with PC3, 5390 nM; with U87-MG, 7.81 µM.

For the compound `Cc1nc(N)ncc1-c1nc(N2CCOCC2)nc2c(CN3CCN(C(=O)[C@H](C)O)CC3)csc12` [Compound 22], the IC50 was determined as 77 nM against PI3Kα and 11 nM against PI3Kδ.

Take `Cc1sc2c(-c3cnc(N)nc3)nc(N3CCOCC3)nc2c1CN1CCN(C(=O)[C@H](C)O)CC1` [Compound 24]: the IC50 at PI3Kα was 18.9 nM; against PI3Kδ, 8.3 nM; in the series on A549 it was 2.74 µM; with PC3, 2070 nM; with U87-MG, 9.36 µM.

For `Cc1sc2c(-c3cnc(N)nc3)nc(N3CCOCC3)nc2c1CN1CCN(C(=O)CO)CC1` [Compound 29], the 50% inhibitory concentration (IC50) against PI3Kα was determined as 18 nM; on PI3Kδ, 7 nM; in the series with A549, 2.7 µM; in the series with PC3 it was 1490 nM; with U87-MG, 3.74 µM. Besides, the TGI in series [1] (setting [3]) was 88.38%; in series [1] (setting [4]) it was 102.88%; in series [1] (setting [5]) it was 113.86%. Besides, the “Tumor size D 0” value in series [1] (setting [3]) is 148.62 mm^3; in series [1] (setting [4]), 151.36 mm^3; in series [1] (setting [5]), 148.16 mm^3. In addition, the “Tumor size D 20” value stood at 232.84 mm^3 in series [1] (setting [3]), 130.48 mm^3 in series [1] (setting [4]) and 47.70 mm^3 in series [1] (setting [5]). Moreover, the “ability to inhibit tumor growth compared with GDC-0941 (in words)” value in series [1] (U87MG xenograft in nude mice) is “significantly better than GDC-0941”. Further, the “in vivo anti-tumor activity (in words)” value in series [1] (U87MG xenograft in nude mice) is on record as “strong in vivo anti-tumor activity”. Besides, the “Body weight D 0” value is recorded as 22.40 g in series [2] (setting [3]), 22.21 g in series [2] (setting [4]) and 22.76 g in series [2] (setting [5]). In addition, the entries for the “Body weight D 20” value in series [2] (setting [3]), in series [2] (setting [4]) and in series [2] (setting [5]) were 22.69 g, 21.99 g and 20.62 g, respectively. The “tolerability / toxic side effects (in words)” value in series [2] (high dose (150 mg/kg)) is reported as “the tested mice can still torelate even the high dose”.

`CS(=O)(=O)N1CCN(Cc2csc3c(-c4cncnc4)nc(N4CCOCC4)nc23)CC1` [Compound 15]: the IC50 stood at 104 nM on PI3Kα and 200 nM at PI3Kδ.

Consider `O=C(CO)N1CCN(Cc2csc3c(-c4cccc5[nH]ncc45)nc(N4CCOCC4)nc23)CC1` [Compound 26], for which the 50% inhibitory concentration (IC50) against PI3Kα is 141 nM; at PI3Kδ, 41 nM; with A549 it was 9.33 µM; in the series with PC3, 3280 nM; with U87-MG it was 19.7 µM.

With `CS(=O)(=O)N1CCN(Cc2csc3c(-c4cccc(O)c4)nc(N4CCOCC4)nc23)CC1` [Compound 13], the IC50 against PI3Kα was 265 nM; against PI3Kδ it was 327 nM.

With `CS(=O)(=O)N1CCN(Cc2cc3nc(-c4cccc5[nH]ncc45)nc(N4CCOCC4)c3s2)CC1` [GDC-0941, reference compound], in series [1] (setting [6]), the TGI is 57.65%, the “Tumor size D 0” value turned out to be 149.86 mm^3 and the “Tumor size D 20” value stood at 456.64 mm^3. Besides, in series [1] (setting [4]), the TGI is 66.07%, the “Tumor size D 0” value is given as 150.72 mm^3 and the “Tumor size D 20” value was 396.57 mm^3. Besides, in series [2] (setting [6]), the “Body weight D 0” value is reported as 22.24 g and the “Body weight D 20” value was determined as 23.64 g. For the same compound, in series [2] (setting [4]), the “Body weight D 0” value came to 22.47 g and the “Body weight D 20” value is 23.57 g.

For the compound `C[C@@H](O)C(=O)N1CCN(Cc2csc3c(-c4cccc5[nH]ncc45)nc(N4CCOCC4)nc23)CC1` [Compound 23], the IC50 against PI3Kα amounted to 202 nM; on PI3Kδ, 16 nM.

`Nc1ncc(-c2nc(N3CCOCC3)nc3ccoc23)cn1` [Compound 31]: the IC50 at PI3Kα worked out at 26 nM; on PI3Kδ it was 290 nM.

Regarding `CC(C)(O)C(=O)N1CCN(Cc2csc3c(-c4cnc(N)nc4)nc(N4CCOCC4)nc23)CC1` [Compound 20], the concentration for half-maximal inhibition (IC50) was determined as 46.2 nM against PI3Kα and 52 nM at PI3Kδ.

`CN(Cc1csc2c(-c3cnc(N)nc3)nc(N3CCOCC3)nc12)C(=O)CO` [Compound 32] had a half-inhibitory concentration (IC50) at PI3Kα of 32 nM.

Take `Cc1nc(N)ncc1-c1nc(N2CCOCC2)nc2c(CN3CCN(C(=O)[C@H](C)O)CC3)csc12` [Compound 21]: the results for the IC50 against PI3Kα and on PI3Kδ were 35 nM and 4.7 nM, respectively.

For the compound `Cc1nc(N)ncc1-c1nc(N2CCOCC2)nc2c(CN3CCN(S(C)(=O)=O)CC3)csc12` [Compound 11], the IC50 came out at 13.1 nM at PI3Kα; 28.3 nM on PI3Kδ; 6.44 µM in the series on A549; 10100 nM in the series on PC3; 12.2 µM in the series with U87-MG.

As to `C[C@@H](O)C(=O)N1CCN(Cc2csc3c(-c4cnc(N)nc4)nc(N4CCOCC4)nc23)CC1` [Compound 19], the IC50 against PI3Kα was found to be 51.4 nM; against PI3Kδ, 31.9 nM; in the series on A549, 3.99 µM; in the series with PC3 it was 2610 nM; in the series on U87-MG, 8.08 µM.

Take `C[C@H](O)C(=O)N1CCN(Cc2csc3c(-c4cccc5[nH]ncc45)nc(N4CCOCC4)nc23)CC1` [Compound 27]: the half-inhibitory concentration (IC50) at PI3Kα was determined as 76 nM; at PI3Kδ, 18 nM.

The values are drawn from patent publication US9499561B2, “Fused pyrimidine compound, and preparation method, intermediate, composition, and uses thereof” (Shanghai Yingli Science and Technology Co., Ltd., priority 2012, dated 2016).
